In one assay the test system is Clostridium difficile. The experiment in a line: MIC against anaerobic bacteria, standard agar-dilution assay (Table IX). The format is cell-based. The conditions noted are these: 19 strains; Gram-positive anaerobe; 24-hour incubation.
For assay [1], the system named is Peptococcus asaccharolyticus. The description is as above. To be noted: 3 strains; Gram-positive anaerobe; 24-hour incubation. The format is cell-based.
The next assay has as its system Peptococcus prevoti. The description is as above. The format is cell-based. The conditions noted are these: 4 strains; Gram-positive anaerobe; 24-hour incubation.
The test system of assay [2] is Streptococcus faecalis X-66. The experiment in a line: Rat Endocarditis Test, catheter-induced (Table XII). The conditions noted are these: for % Cured / % With 4 Log Drop: 16 days, 20 mg/kg × 28, subcutaneous at 12-hour intervals for 14 days; for % With 4 Log Drop: % of animals sacrificed; for effect in experimental catheter-induced endocarditis infection, compared with vancomycin: rats. The format is in vivo, rats. How it is done: The A82846 antibiotics are also useful in the treatment of endocarditis. […] In this test, rats were prepared by inserting a plastic catheter into the right carotid artery, feeding it down into the […] of the heart and anchoring it securely. The animals were allowed to rest two days, and then the test organism, Streptococcus faecalis X-66, was administered intravenously. The organism titer was approximately 5×10^8 /mL; 0.5 mL was administered.
The compounds were administered subcutaneously 15 minutes prior to infection and at 12-hour intervals for 14 days, a total of 28 treatments. The animals were held 2 days after therapy; then, the hearts were removed, homogenized, diluted and plated on trypticase soy agar. Plates were incubated 48 hours before counting.
^a Catheterinduced endocarditis using Streptococcus faecalis X66
^b Subcutaneous doses at 12hour intervals for 14 days
^c % of animals sacrificed with 4 log drop

The test system of the next assay is Peptococcus constellatus. Nature of the assay: MIC against anaerobic bacteria, standard agar-dilution assay (Table IX). The conditions noted are these: 1 strain; Gram-positive anaerobe; 24-hour incubation. The format is cell-based.
In assay [3] the test system is Bacteroides melaninogenicus. The description is as above. The format is cell-based. The conditions noted are these: 2 strains; Gram-negative anaerobe; 24-hour incubation.

Converted amounts (≈) assume the structure as drawn.

Usually MIC stands for the lowest concentration that inhibits growth of the organism.

With `CN[C@H](CC(C)C)C(=O)N[C@H]1C(=O)N[C@@H](CC(N)=O)C(=O)N[C@H]2C(=O)N[C@H]3C(=O)N[C@H](C(=O)N[C@@H](C(=O)O)c4cc(O)cc(O)c4-c4cc3ccc4O)[C@H](O[C@@H]3C[C@@](C)(N)[C@H](O)[C@@H](C)O3)c3ccc(cc3)Oc3cc2cc(c3O[C@H]2O[C@@H](CO)[C@H](O)[C@@H](O)[C@@H]2O[C@H]2C[C@](C)(N)[C@@H](O)[C@H](C)O2)Oc2ccc(cc2Cl)[C@H]1O` [A82846A], the minimal inhibitory concentration (MIC) with Clostridium difficile was 0.125 to 1 µg/mL; in assay [1] it was at most 0.25 µg/mL; against Peptococcus prevoti it was 1 to 2 µg/mL; against Peptococcus constellatus, 0.25 µg/mL (≈ 0.16 µM); in assay [3] it was above 128 µg/mL. The “% Cured” value in assay [2] is recorded as 100%. In assay [2], the “% With 4 Log Drop” value was determined as 100%. Further, in assay [2], the “effect in experimental catheter-induced endocarditis infection, compared with vancomycin” value was “as effective as vancomycin”.
With `CN[C@H](CC(C)C)C(=O)N[C@H]1C(=O)N[C@@H](CC(N)=O)C(=O)N[C@H]2C(=O)N[C@H]3C(=O)N[C@H](C(=O)N[C@H](C(=O)O)c4cc(O)cc(O)c4-c4cc3ccc4O)[C@H](O[C@H]3C[C@](C)(N)[C@@H](O)[C@H](C)O3)c3ccc(c(Cl)c3)Oc3cc2cc(c3O[C@@H]2O[C@H](CO)[C@@H](O)[C@H](O)[C@H]2O[C@H]2C[C@](C)(N)[C@@H](O)[C@H](C)O2)Oc2ccc(cc2Cl)[C@H]1O` [A82846B], the MIC is at most 0.06 to 0.125 µg/mL with Clostridium difficile; 0.06 to 0.5 µg/mL in assay [1]; 1 to 4 µg/mL with Peptococcus prevoti; 0.25 µg/mL (≈ 0.157 µM) in the assay with Peptococcus constellatus; above 128 µg/mL in assay [3]. Also, the “% Cured” value in assay [2] was 100%. The “% With 4 Log Drop” value in assay [2] was 100%. In assay [2], the “effect in experimental catheter-induced endocarditis infection, compared with vancomycin” value is listed as “as effective as vancomycin”.

(Values after patent publication US5843437A, “A82846 antibiotics” (Eli Lilly and Company, priority 1995, dated 1998).)
